Data set [1] has as its system HI650 (Lung Adenocarcinoma). The data set is described as follows: Cell viability analysis, lung cancer HI650. It is filed as cell-based, human.
The next data set concerns cancer cell lines. The data set is described as follows: Cell viability analysis (WST-1) on cancer cell lines. It is filed as cell-based, human. The settings on record: drug 10 μM, 72 hours, WST-1; Table 3.
The next data set has as its system U-2OS. Briefly: Cell viability analysis, osteosarcoma U-2OS. It is filed as cell-based, human.
The test system of data set [2] is LoVo (Colorectal Adenocarcinoma). The data set is described as follows: Cell viability analysis, colon cancer LoVo. It is filed as cell-based, human.
In data set [3] the test system is HCT116 (p53+) (Colorectal Carcinoma).
Data set [4] deals with A549 (Lung Adenocarcinoma). The data set is described as follows: Cell viability analysis, lung cancer A549. It is filed as cell-based, human.
A further data set deals with BxPC-3. Briefly: Cell viability analysis, pancreatic cancer BxPC-3. It is filed as cell-based, human. The conditions noted are these: BxPC-3; repeated experiment.
A further data set relates to AsPC-1. The data set is described as follows: Cell viability analysis, pancreatic cancer AsPC-1. It is filed as cell-based, human.
Data set [5] relates to AGS (Gastric Adenocarcinoma). The data set is described as follows: Cell viability analysis, gastric cancer AGS. It is filed as cell-based, human.
Data set [6] relates to A375 (Amelanotic Melanoma). Briefly: Cell viability analysis, skin cancer A375. It is filed as cell-based, human.
Data set [7] concerns HeLa (Cervix Adenocarcinoma). The data set is described as follows: Cell viability analysis, cervical cancer HeLa. It is filed as cell-based, human.
Data set [8] deals with PC3 (p53−) (Prostate Adenocarcinoma). Briefly: Cell viability analysis, prostate cancer PC3. It is filed as cell-based, human.
Data set [9] deals with BCC (basal cell carcinoma). The data set is described as follows: Cell viability analysis, skin cancer BCC. It is filed as cell-based, human. The conditions noted are these: BCC; repeated experiment.
In data set [10] the test system is SAS (Tongue squamous cell carcinoma). Briefly: Cell viability analysis, tongue cancer SAS. It is filed as cell-based, human.
Data set [11] concerns MCF7 (Mammary Gland, Adenocarcinoma). The data set is described as follows: Cell viability analysis, breast cancer MCF7. The settings on record: drug 10 μM, 72 hours, WST-1, OD450 nm. It is filed as cell-based, human. Background: Tetrazolium dyes change colour on reduction, which living cells bring about.
Data set [12] deals with HepG2 (Hepatocellular Carcinoma). Briefly: Cell viability analysis, hepatic cancer HepG2. It is filed as cell-based, human.
The subject of data set [13] is MKN-45 (Gastric Adenocarcinoma). Briefly: Cell viability analysis, gastric cancer MKN-45. It is filed as cell-based, human.
For data set [14], the system named is TSGH-8301 (Urinary Bladder Carcinoma). The data set is described as follows: Cell viability analysis, bladder cancer TSGH-8301. It is filed as cell-based, human.
For data set [15], the system named is MDA-MB-231 (Mammary Gland, Adenocarcinoma). The data set is described as follows: Cell viability analysis, breast cancer MDA-MB-231. It is filed as cell-based, human.
In data set [16] the test system is C-33A (Cervical carcinoma). The data set is described as follows: Cell viability analysis, cervical cancer C-33A. It is filed as cell-based, human.
Another data set concerns NIH: OVCAR-3. The data set is described as follows: Cell viability analysis, ovarian cancer NIH: OVCAR-3. It is filed as cell-based, human.
The subject of data set [17] is Hep3B (hepatocellular carcinoma). The data set is described as follows: Cell viability analysis, hepatic cancer Hep3B. It is filed as cell-based, human.
Data set [18] relates to 786-O (Renal adenocarcinoma). Briefly: Cell viability analysis, renal cancer 786-O. It is filed as cell-based, human.
Setting [19] is: drug 10 μM, 72 hours, WST-1, OD450 nm.

Where two headings read alike, the source gives them in different places.

`CC1(C)S[C@@H]2[C@H](NC(=O)[C@H](N)c3ccc(O)cc3)C(=O)N2[C@H]1C(=O)[O-].[Na+]` [Amoxicillin sodium (Amox), Amoxicillin sodium]: in [1] (H1650, repeated experiment), the “The results of antibiotic drug inhibiting cancer cell lines (cell viability analysis), H1650” value is reported as 87.81. Besides, in data set [1] (setting [19]), the “cell viability (survival rate), H1650” value was determined as 43.3. Also, the “inhibition effect on different cancer cell lines” value in the data set on cancer cell lines was “significant inhibition effect”. Moreover, the “The results of antibiotic drug inhibiting cancer cell lines (cell viability analysis), U2OS” value with U-2OS (U2OS, repeated experiment) is 65.21. For the same molecule, the “cell viability (survival rate), LoVo” value in data set [2] (setting [19]) worked out at 69.1. The viability (in general, a read-out of living cells in per cent, often relative to untreated cells) in [3] amounted to 112%. Moreover, the “cell viability (survival rate), A549” value in [4] (setting [19]) is on record as 60.6. The “The results of antibiotic drug inhibiting cancer cell lines (cell viability analysis), BxPC-3” value with BxPC-3 worked out at 71.08. Further, in the data set with AsPC-1 (AsPC-1, repeated experiment), the “The results of antibiotic drug inhibiting cancer cell lines (cell viability analysis), AsPC-1” value was determined as 88.13. Further, the “The results of antibiotic drug inhibiting cancer cell lines (cell viability analysis), AGS” value in data set [5] (AGS, repeated experiment) is listed as 128.2. In data set [5] (setting [19]), the “cell viability (survival rate), AGS” value turned out to be 51.2. Besides, in data set [6] (A375, repeated experiment), the “The results of antibiotic drug inhibiting cancer cell lines (cell viability analysis), A375” value is given as 115.9. Moreover, the “cell viability (survival rate), A375” value in [6] (setting [19]) is 78.5. Besides, the “The results of antibiotic drug inhibiting cancer cell lines (cell viability analysis), HeLa” value in data set [7] (HeLa, repeated experiment) is on record as 112.6. Besides, in data set [7] (setting [19]), the “cell viability (survival rate), HeLa” value was 81.0. Also, in [8] (PC-3, repeated experiment), the “The results of antibiotic drug inhibiting cancer cell lines (cell viability analysis), PC-3” value is recorded as 127.2. In addition, in data set [8] (setting [19]), the “cell viability (survival rate), PC3” value stood at 74.8. For the same molecule, in data set [9], the “The results of antibiotic drug inhibiting cancer cell lines (cell viability analysis), BCC” value is 115.1. Further, the “The results of antibiotic drug inhibiting cancer cell lines (cell viability analysis), SAS” value in [10] (SAS, repeated experiment) turned out to be 66.94. For the same molecule, in data set [11], the “cell viability (survival rate), MCF7” value worked out at 60.4. The “The results of antibiotic drug inhibiting cancer cell lines (cell viability analysis), HepG2” value in data set [12] (HepG2, repeated experiment) is reported as 124.5. The “cell viability (survival rate), HepG2” value in data set [12] (setting [19]) worked out at 80.8. Further, in data set [13] (MKN-45, repeated experiment), the “The results of antibiotic drug inhibiting cancer cell lines (cell viability analysis), MKN-45” value came out at 110.7. For the same molecule, the “cell viability (survival rate), MKN-45” value in [13] (setting [19]) worked out at 63.2. For the same molecule, in data set [14] (TSGH-8301, repeated experiment), the “The results of antibiotic drug inhibiting cancer cell lines (cell viability analysis), TSGH-8301” value came to 129.6. Moreover, the “cell viability (survival rate), TSGH” value in [14] (setting [19]) is listed as 45.4.

Turning to `N#C[C@@H]1C[C@@H]2C[C@H]2N1C(=O)[C@@H](N)C12CC3CC(CC(O)(C3)C1)C2` [Saxagliptin (BMS-477118, Onglyza)], the “The results of antibiotic drug inhibiting cancer cell lines (cell viability analysis), H1650” value in data set [1] was 101.5. In addition, the “The results of antibiotic drug inhibiting cancer cell lines (cell viability analysis), U2OS” value in the data set with U-2OS came to 62.9. Also, in data set [2], the “The results of antibiotic drug inhibiting cancer cell lines (cell viability analysis), LoVo” value amounted to 82.99. The viability in data set [3] is 107%. Besides, the “The results of antibiotic drug inhibiting cancer cell lines (cell viability analysis), A549” value in data set [4] came out at 98.68. Further, the “The results of antibiotic drug inhibiting cancer cell lines (cell viability analysis), MDA-MB231” value in data set [15] amounted to 102. Moreover, in the data set on AsPC-1, the “The results of antibiotic drug inhibiting cancer cell lines (cell viability analysis), AsPC-1” value is listed as 75.97. Besides, in data set [5], the “The results of antibiotic drug inhibiting cancer cell lines (cell viability analysis), AGS” value came to 121.3. The “The results of antibiotic drug inhibiting cancer cell lines (cell viability analysis), A375” value in [6] turned out to be 111.4. The “The results of antibiotic drug inhibiting cancer cell lines (cell viability analysis), HeLa” value in data set [7] turned out to be 114.7. Moreover, the “The results of antibiotic drug inhibiting cancer cell lines (cell viability analysis), C-33A” value in [16] is reported as 104.4. Further, the “The results of antibiotic drug inhibiting cancer cell lines (cell viability analysis), PC-3” value in data set [8] came out at 112. Besides, the “The results of antibiotic drug inhibiting cancer cell lines (cell viability analysis), SAS” value in data set [10] worked out at 62.71. The “The results of antibiotic drug inhibiting cancer cell lines (cell viability analysis), NIH-OVCAR-3” value in the data set with NIH: OVCAR-3 is 114.2. For the same molecule, in [17], the “The results of antibiotic drug inhibiting cancer cell lines (cell viability analysis), Hep3B” value was 122.9. For the same molecule, the “The results of antibiotic drug inhibiting cancer cell lines (cell viability analysis), 786-O” value in [18] was determined as 98.33. The “The results of antibiotic drug inhibiting cancer cell lines (cell viability analysis), HepG2” value in [12] is 118. The “The results of antibiotic drug inhibiting cancer cell lines (cell viability analysis), MKN-45” value in data set [13] was found to be 117.7. In [14], the “The results of antibiotic drug inhibiting cancer cell lines (cell viability analysis), TSGH-8301” value was 119.6.

Source of the values: patent publication US10105357B2, “Indication of antibiotic drugs for preparation of cancer inhibition pharmaceutical composition” (LAUNX BIOMEDICAL CO., LTD., priority 2014, dated 2018).
